This note sets out measurements from patent publication US20030199743A1, “Screening test and procedure using apocrine sweat” (priority 2000, published 2003).

A short description of this series: THC in blood, eccrine sweat, apocrine sweat and urine after smoking a THC containing product. It counts as in vivo, human. As to the method: Samples of apocrine and eccrine sweat were collected prior to oral consumption of a THC containing product. No THC was detected in either sample. The test individual then orally consumed (smoked) a quantity of a THC containing product. Small quantities (0.5 cc) of apocrine and eccrine sweat was separately collected over a period of 30 minutes under ambient conditions to induce sweating. When the collected samples were tested using standard laboratory tests for THC metabolites […].

Consider `CCCCCc1cc(O)c2c(c1)OC(C)(C)[C@@H]1CCC(C)=C[C@@H]21` [Delta 9 THC, delta nine tetrahydrocannibinol], for which the “Delta 9 THC concentration in apocrine sweat” value (apocrine sweat (0.5 cc) collected over 30 minutes after smoking a THC containing product) was found to be 107 nanograms/ml. Moreover, under “blood, test individual after smoking a THC containing product, standard laboratory test for THC”, the “Delta 9 THC concentration in blood” value is on record as 21 nanograms/ml. The “Delta 9 THC concentration in eccrine sweat” value (eccrine sweat (0.5 cc) collected over 30 minutes after smoking a THC containing product) is 4 nanograms/ml. For the same molecule, under “ratio apocrine sweat / blood”, the “Quantity of THC in apocrine sweat relative to blood” value turned out to be 5.1 times. The “Quantity of THC in apocrine sweat relative to eccrine sweat” value (ratio apocrine sweat / eccrine sweat) is recorded as 26.75 times. Besides, the “Delta 9 THC concentration in urine” value (urine, after smoking a THC containing product) is listed as “undetect-”.
